The values that follow come from ChEMBL document CHEMBL4706595, “1,3-Oxazine-2-one derived dual-targeted molecules against replicating and non-replicating forms of Mycobacterium tuberculosis” (Eur J Med Chem, 2020).

Converted amounts (≈) assume the structure as drawn. The source made the active and inactive calls. The calls are words filed in the database; no cut-off is given here. A value given as a limit tells only on which side of the number the result lay.

Broadly, the MIC is the lowest concentration found to suppress growth. As a reminder, the IC50 is the concentration that inhibits the measured activity by half.

In test [1] the test system is Mycobacterium tuberculosis. Kind of test: Antimycobacterial activity against non-replicating Mycobacterium tuberculosis H37Rv expressing pFCA-LuxAB assessed as bacterial growth inhibition incubated for 10 days under anerobic condition by low oxygen recovery assay. To be noted: 240 h, time 10 day. The class given is functional.
The test system of test [2] is Mycobacterium tuberculosis. Kind of test: Antimycobacterial activity against replicating Mycobacterium tuberculosis H37Ra assessed as inhibition of bacterial growth incubated for 7 days by MABA assay. The settings on record: time 7 day. The format is functional. In general terms: The colour change of resazurin is a common sign of viable cells or microbes.
Test [3] can be described thus: Inhibition of Mycobacterium smegmatis mc2155 menG assessed as inhibition of 2-methyl-3-(3,7,11-trimethyldodeca-2,6,10-trienyl)naphthalene-1,4-dione formation using 2-(3,7,11-trimethyldodeca-2,6,10-trienyl)naphthalene-1,4-dione as substrate incubated for 3 hrs in presence of SAM by HPLC analysis. Details: species or system Mycolicibacterium smegmatis MC2 155.
Test [4] deals with Mycobacterium tuberculosis. Kind of test: Inhibition of mycolic acid biosynthesis in Mycobacterium tuberculosis H37Ra assessed as reduction in keto-mycolate production at 5XMIC incubated for 7 days by TLC analysis. The class given is functional. The settings on record: for inhibition (INH): time 7 day.
Test [5] can be described thus: Inhibition of Mycobacterium tuberculosis H37Ra menG assessed as inhibition of 2-methyl-3-(3,7,11-trimethyldodeca-2,6,10-trienyl)naphthalene-1,4-dione formation using 2-(3,7,11-trimethyldodeca-2,6,10-trienyl)naphthalene-1,4-dione as substrate incubated for 3 hrs in presence of SAM by HPLC analysis.
The subject of test [6] is Mycobacterium tuberculosis. Kind of test: Antimycobacterial activity against replicating Mycobacterium tuberculosis H37Rv assessed as inhibition of bacterial growth incubated for 7 days by MABA assay. The class given is functional. The settings on record: time 7 day.
Test [7] has as its system Mycolicibacterium smegmatis. Kind of test: Antimycobacterial activity against Mycobacterium smegmatis mc2155 assessed as inhibition of bacterial growth incubated for 48 hrs by broth microdilution method. The class given is functional. The settings on record: MC2 155. (In general: In broth dilution the organism is exposed to a series of concentrations in liquid medium.)

The nature of test [8]: Cytotoxicity against human PBMC assessed as reduction in cell growth after 72 hrs by MTT assay. The format is tissue-based.
The test system of test [9] is Mycobacterium tuberculosis. Kind of test: Inhibition of mycolic acid biosynthesis in Mycobacterium tuberculosis H37Ra assessed as reduction in methoxy-mycolate production at 5XMIC incubated for 7 days by TLC analysis. The class given is functional. The settings on record: time 7 day.
For test [10], the system named is Mycobacterium tuberculosis. Kind of test: Inhibition of mycolic acid biosynthesis in Mycobacterium tuberculosis H37Ra assessed as reduction in alfa-mycolate production at 5XMIC incubated for 7 days by TLC analysis. The format is functional. To be noted: for inhibition (INH): time 7 day.

With `CCCCCCOc1ccc(C(=O)OCCCOc2cccc(Nc3nc4ccccc4c(=O)o3)c2)cc1`, the MIC in test [1] came out at 5.32 µg/mL (≈ 10.3 µM); in test [2], 5.83 µg/mL (≈ 11.3 µM); in [6] it was 6.12 µg/mL (≈ 11.8 µM); in [7], 6.3 µg/mL (≈ 12.2 µM). The IC50 in test [3] came to 16.33 µg/mL; in test [5], 13.53 µg/mL; in test [8], 123 µg/mL (≈ 238 µM). The inhibition result in test [4] (time 7.0 day) and in test [10] (time 7.0 day) was “Active” each time. Further, the “inhibition (INH)” value in test [9] turned out to be 61%.
As for `CCCCOc1ccc(C(=O)OCCCOc2cccc(Nc3nc4ccccc4c(=O)o3)c2)cc1`, the MIC amounted to 9.41 µg/mL (≈ 19.3 µM) in test [1], 6.32 µg/mL (≈ 12.9 µM) in test [2], 7.28 µg/mL (≈ 14.9 µM) in test [6] and 25 µg/mL (≈ 51.2 µM) in [7]. The IC50 turned out to be 29.71 µg/mL in test [3], 20.06 µg/mL in test [5] and 117 µg/mL (≈ 239 µM) in [8]. In addition, the “inhibition (INH)” value was found to be 31% in test [4], 36% in test [9] and 100% in [10].
As for `CCCCCCCCC(=O)Oc1cccc(Nc2nc3ccccc3c(=O)o2)c1`, the minimum inhibitory concentration (MIC) in [1], in test [2], in test [6] and in test [7] was above 100 µg/mL throughout. Moreover, the 50% inhibitory concentration (IC50) in test [8] stood at 171 µg/mL (≈ 434 µM).
Regarding `CCCCCCCOc1ccc(C(=O)OCCCOc2cccc(Nc3nc4ccccc4c(=O)o3)c2)cc1`, the minimal inhibitory concentration (MIC) in [1], in test [2], in test [6] and in test [7] was above 100 µg/mL in each case. For the same compound, the IC50 in test [8] is 181 µg/mL (≈ 341 µM).
`CCCCCCCC/C=C/CCCCCCCCOc1ccc(C(=O)OCCCOc2cccc(Nc3nc4ccccc4c(=O)o3)c2)cc1`: the minimum inhibitory concentration (MIC) was 35.9 µg/mL (≈ 52.6 µM) in test [1], 19.6 µg/mL (≈ 28.7 µM) in [2], 18.7 µg/mL (≈ 27.4 µM) in test [6] and 12.5 µg/mL (≈ 18.3 µM) in test [7]. Further, the IC50 in [8] came to 150 µg/mL (≈ 219 µM).
On to `CCCCCCCCCOc1ccc(C(=O)OCCCOc2cccc(Nc3nc4ccccc4c(=O)o3)c2)cc1`, for which the MIC in test [1] stood at 31 µg/mL (≈ 55.6 µM); in [2] it was 37.1 µg/mL (≈ 66.5 µM); in test [6], 41.8 µg/mL (≈ 74.9 µM); in [7], 50 µg/mL (≈ 89.5 µM). For the same compound, the half-inhibitory concentration (IC50) in test [8] was 169 µg/mL (≈ 303 µM).
Take `CCCCC(=O)Oc1cccc(Nc2nc3ccccc3c(=O)o2)c1`: the MIC in [1], in [2], in [6] and in [7] was above 100 µg/mL each time. The 50% inhibitory concentration (IC50) in test [8] is 201 µg/mL (≈ 595 µM).
For the compound `CC(C)=CCOc1cccc(NC(=O)Nc2ccccc2C)c1`, in test [6], the minimal inhibitory concentration (MIC) amounted to 5.2 µg/mL (≈ 16.8 µM).
As to `O=c1oc(Nc2cccc(O)c2)nc2ccccc12`, the MIC in test [1] was 40.1 µg/mL (≈ 158 µM); in test [2], 66.2 µg/mL (≈ 260 µM); in test [6], 75.2 µg/mL (≈ 296 µM); in [7] it was 25 µg/mL (≈ 98.3 µM). Further, the IC50 in [8] was 173 µg/mL (≈ 682 µM).
The like results for `CCCOc1ccc(C(=O)OCCCOc2cccc(Nc3nc4ccccc4c(=O)o3)c2)cc1` were, in that order, 15.3 µg/mL (≈ 32.2 µM), 10 µg/mL (≈ 21.1 µM), 11.7 µg/mL (≈ 24.7 µM), 12.5 µg/mL (≈ 26.3 µM) and 145 µg/mL (≈ 306 µM).
As to `CCCC(=O)Oc1cccc(Nc2nc3ccccc3c(=O)o2)c1`, the minimum inhibitory concentration (MIC) in test [1], in test [2], in [6] and in test [7] was above 100 µg/mL in each case. In [8], the IC50 amounted to 199 µg/mL (≈ 615 µM).
Regarding `CCCCCC(=O)Oc1cccc(Nc2nc3ccccc3c(=O)o2)c1`, the minimal inhibitory concentration (MIC) in test [1], in [2], in [6] and in test [7] was above 100 µg/mL each time. Also, the IC50 in test [8] came to 186 µg/mL (≈ 529 µM).
Consider `CCCCCCCC/C=C/CCCCCCCC(=O)Oc1cccc(Nc2nc3ccccc3c(=O)o2)c1`, for which the minimal inhibitory concentration (MIC) in test [1] came to 68.9 µg/mL (≈ 133 µM); in test [2] it was 51.4 µg/mL (≈ 99.2 µM); in test [6] it was 47.4 µg/mL (≈ 91.3 µM); in test [7], 50 µg/mL (≈ 96.4 µM). The IC50 in [8] turned out to be 179 µg/mL (≈ 344 µM).
In the case of `CCCCCOc1ccc(C(=O)OCCCOc2cccc(Nc3nc4ccccc4c(=O)o3)c2)cc1`, the MIC amounted to 9.02 µg/mL (≈ 17.9 µM) in test [1], 8.16 µg/mL (≈ 16.2 µM) in [2], 7.01 µg/mL (≈ 13.9 µM) in [6] and 25 µg/mL (≈ 49.7 µM) in [7]. Besides, the IC50 in [3] was 27.19 µg/mL; in test [5], 20.88 µg/mL; in test [8], 142 µg/mL (≈ 282 µM). The results for the “inhibition (INH)” value in test [4], in test [9] and in test [10] were 37%, 48% and 100%, respectively.
